From patent US9403877B2, “Peptide agents for cancer therapy” (INTER-K PTY LIMITED, priority 2012, dated 2016)
Entries after “also recorded” stand apart in the source; their conditions may differ. Where no end group is shown, it is not given here. The star is where a group is joined. FITC = O=C1OC2(c3ccc(O)cc3Oc3cc(O)ccc32)c2ccc(NC(=S)*)cc21

Columns and labels:
HT29 colon cancer cells [1] = assay: In vitro growth inhibition MTT assay, HT29; assay type: cell-based, human; settings: for Inhibition of HT29 cell growth/proliferation (MTT), in words: serum-free medium, 72 hours, peptide 50 nM-100 μM, compared with RSKAKNPLYR or 10Ala
Procedure: (§1) The human colon cancer cell line HT29, ovarian cancer cell line A2780, breast cancer cell lines MCF-7 and MDA468, and a prostate cancer cell line (DU145) were used for in vitro studies. The cell lines were cultured at 37° C., under air containing 5% CO2 and passaged regularly for optimal growth. Cells were maintained in DMEM medium containing 10% fetal bovine serum. All culture medium preparations were further supplemented with penicillin/streptomycin (100 μg/ml), and
(§2) 1.2 In Vitro Growth Inhibition MTT Assay
Cells in logarithmic growth were transferred to 96-well plates in 100 μl of serum-containing medium at a density of 4000 cells per well. […] […] Growth-inhibitory effects were evaluated by MTT (3-[4,5-dimethylthiazol-2-yl]2,5-diphenyl-tetrazolium bromide) cell growth assay and absorbance was read at 540 nm. Growth of control cells was exponential during the whole incubation period. Mean surviving fractions±SEM values (minimum of 3 separate experiments) were determined for each peptide/cisplatin concentration.

HT29 cells = assay: Uptake of FITC-labelled peptide by confocal microscopy; assay type: cell-based, human; settings: serum-free culture, after 24 hours, compared to FITC alone
Procedure: The ability of 10 Ala to cross the plasma membrane of HT29 cells was assessed by means of confocal microscopy of cells exposed to 10Ala conjugated to fluorosceine isothiocyanate (FITC) under serum-free culture conditions. The peptide used in this study comprised the sequence KRAKAKAAAAR (SEQ ID No. 25) (identified as FITC-K10(4)Ala) with an extra lysine residue at the amino terminus (to which the FITC label is attached). […] A microphotograph showing localization of the FITC-labelled peptide to the cytoplasm of cells compared to cells treated with FITC alone is shown in FIG. 9.

[2] = test system: DU145 prostate cancer cells; assay: Modified MTT assay, DU145, 5% serum, 48 hours; assay type: cell-based, human; settings: for Growth inhibition of DU145 prostate cancer cells: 5% serum, 48 hours, concentrations of 0.5 μM or greater
Procedure: (§3) Cells in logarithmic growth were transferred to 96-well plates in 100 μl of serum-containing medium at a density of 4000 cells per well. After 24 hours the previously added serum-containing medium was removed and 200 μl serum free medium (SFM) with or without peptide was added to each of triplicate wells. Drug exposure experiments were carried out on cell lines using varying concentrations of peptides (50 nM-100 μM) and cells were exposed to peptides for 72 hours in serum-free culture medium. Growth-inhibitory effects were evaluated by MTT (3-[4,5-dimethylthiazol-2-yl]2,5-diphenyl-tetrazolium bromide) cell growth assay and absorbance was read at 540 nm. Growth of control cells was exponential during the whole incubation period. Mean surviving fractions±SEM values (minimum of 3 separate experiments) were determined for each peptide/cisplatin concentration.
(§4) The growth inhibitory activity of various concentrations of the 10 RVK peptide (RVKVKVVVVR) (SEQ ID No. 24) with an 8 mer polyarginine sequence coupled to its C-terminal end (i.e., RVKVKVVVVRRRRRRRRR (SEQ ID No. 26), referred to herein as 10 RVK Arg) on MDA468 breast cancer cells was assessed by a modified form of the MTT assay described in Example 1.2 in which 3000 cells per well were cultured for 48 hours in culture medium containing 5% serum. For the negative control, an 8 mer polyargine peptide (8 Arg) was used. The results shown in FIG. 10 are the average of 3 replicate wells for each dosage.
(§5) The growth inhibitory activity of various concentrations of the 10 RVK Arg peptide on MDA468 breast cancer and DU145 prostate cancer cells was assessed by MTT assay involving incubating the cells in 5% serum containing medium for 48 hours as described in Example 2. As a comparison, inhibition of the growth of the cells by the 10 RVK peptide with a 7 mer polyarginine sequence coupled to its C-terminal end (i.e., RVKVKVVVVRRRRRRRR (SEQ ID No. 27), referred to herein as 10 RVK 7 Arg) and the 10 RVK peptide with an 8 mer polyargine sequence coupled to its N-terminal end (i.e., RRRRRRRRRVKVKVVVVR (SEQ ID No. 28), referred to herein as Arg 10 RVK) were also assessed. The results for inhibition of the breast cancer cells are shown in FIG. 11 while the results for treatment of the prostate cancer cells are shown in FIG. 12.

[3] = test system: MDA468 breast cancer cells; assay: Modified MTT assay, MDA468, 5% serum, 48 hours; assay type: cell-based, human; settings: for Growth inhibition of MDA468 breast cancer cells: concentrations of 0.5 μM or greater
Procedure: as §3, §4, §5

[4] = test system: breast (MCF-7) cancer cell line; assay: In vitro growth inhibition MTT assay, MCF-7, serum-free; assay type: cell-based, human; settings: 72 hours
Procedure: as §1, §2, §3

[5] = test system: prostate (DU145) cancer cell line; assay: In vitro growth inhibition MTT assay, DU145, serum-free; assay type: cell-based, human; settings: 72 hours
Procedure: as §1, §2, §3

[6] = test system: ovarian (A2780) cancer cell line; assay: In vitro growth inhibition MTT assay, A2780, serum-free; assay type: cell-based, human; settings: 72 hours
Procedure: as §1, §2, §3

colon cancer cells = settings: PCT/AU2010/000203; cited from earlier work
HT29 colon cancer cells [7] = settings: in vitro in the presence of serum, Agrez et al., 2011; cited from earlier work

With RAKAK (shorter variant of 10Ala) the “Inhibition of HT29 cell growth/proliferation (MTT), in words” value (HT29 colon cancer cells [1]) was “minimal effect”.
With “RSKAKNPLAR (A short variant peptide of sequence 2)” the “Inhibition of HT29 cell growth/proliferation (MTT), in words” value (HT29 colon cancer cells [1]) was “not seen”.
For “FITC-KRAKAKAAAAR ({FITC}-KRAKAKAAAAR) [FITC-K10(4)Ala]”, the “Internalization / localization of FITC-labelled peptide in cells” value (HT29 cells) was “cytoplasmic localization of peptide”.
For “RRRRRRRRRVKVKVVVVR (10 RVK peptide with an 8 mer polyargine sequence coupled ot its N-terminal end) [Arg 10 RVK]”, the “Growth inhibition of DU145 prostate cancer cells” value [2] was “markedly inhibited growth” and the “Growth inhibition of MDA468 breast cancer cells” value ([3]; 5% serum, 48 hours) was “markedly inhibited growth”.
With “RSKAKNALYR (short variant of sequence 2, scrambled)” the “Inhibition of HT29 cell growth/proliferation (MTT), in words” value (HT29 colon cancer cells [1]) was “not seen”.
With “RVKVKVVVVRRRRRRRR (10RVK peptide with a 7 mer polyarginine sequence coupled to its C-terminal end) [10 RVK 7 Arg]” the “Growth inhibition of DU145 prostate cancer cells” value [2] was “markedly inhibited growth” and the “Growth inhibition of MDA468 breast cancer cells” value ([3]; 5% serum, 48 hours) was “markedly inhibited growth”.
For RAKAKAAAAR (B6 derived peptide), the “Growth inhibitory effect in serum-containing medium” value (HT29 colon cancer cells [1]; serum-containing medium, data not shown) was “adversely affected”, the “Inhibition of HT29 cell growth/proliferation (MTT), in words” value (HT29 colon cancer cells [1]) was “ability of both peptides to inhibit cell growth was similar” and the “Inhibition of HT29 cell growth/proliferation (MTT), in words” value (HT29 colon cancer cells [1]; listed as 10Ala) was “significantly more effective at inhibiting cell proliferation”. For the same substance, the “Inhibition of MCF-7 cell growth” value [4] was “equally effective”, the “Inhibition of DU145 cell growth” value [5] was “equally effective” and the “Inhibition of A2780 cell growth” value [6] was “equally effective”.
For “KEKLKNPLFK (10-mer peptide from B2 integrin cytoplasmic domains) [10 mer peptide derived from the β2 integrin cytoplasmic domain]”, the “Inhibition of proliferation of colon cancer cells in vitro (previously reported)” value (“Inhibition … (previously reported)” for short) (colon cancer cells) is listed as “effective at inhibiting proliferation”.
With “RVKVKVVVVRRRRRRRRR (8 mer polyarginine sequence couple to the C-terminal end of 10 RVK peptide) [10 RVK Arg]” the “Growth inhibitory activity on DU145 compared to 10 RVK with penetratin coupled to its N-terminal” value ([2]; 10 μM to 50 μM, results not shown) was “enhanced cell growth inhibitory activity”, the “Growth inhibition of DU145 prostate cancer cells” value [2] was “markedly inhibited growth” and the “Growth inhibitory activity on MDA468 compared to 10 RVK with penetratin coupled to its N-terminal” value ([3]; 5 μM to 10 μM, results not shown) was “enhanced cell growth inhibitory activity”. For the same substance, the “Growth inhibition of MDA468 cells” value ([3]; 5% serum, 48 hours, concentration 5 μM to 50 μM) was “totally inhibited growth” and the “Growth inhibition of MDA468 breast cancer cells” value ([3]; 5% serum, 48 hours) was “markedly inhibited growth”.
In the case of “RSKAKNPLYR (Non naturally occurring peptide derived from the B6 binding sequence)”, the “Growth inhibitory effect in the presence of serum (previously shown)” value (HT29 colon cancer cells [7]) is given as “adversely affected”.
In the case of “RAAKAARAAK (Scrambled peptide with Alanine in the place of all non-charged residues in peptide of sequence 2.) [scrambled alanine-substituted peptide]”, the “Inhibition of HT29 cell growth/proliferation (MTT), in words” value (HT29 colon cancer cells [1]) was “ineffective”.
In the case of “RSKAKR (SHORT VARIANT OF THE PEPTIDE FROM SEQUENCE 2)”, the “Inhibition of HT29 cell growth/proliferation (MTT), in words” value (HT29 colon cancer cells [1]) was “failed to inhibit proliferation”.
With “RAKARAAAAK (10Ala peptide wherein the position of one or both arginine and lysine residues have been inverted)” the “Inhibition of HT29 cell growth/proliferation (MTT), in words” value (HT29 colon cancer cells [1]) was “significantly reduced the ability of the peptides to inhibit cell growth”.
In the case of “RKKR (Charged residues for growth inhibitory effect)”, the “Inhibition of HT29 cell growth/proliferation (MTT), in words” value (HT29 colon cancer cells [1]) was “not sufficient to inhibit cancer cell proliferation in vitro to the same degree”.
In the case of “RAKAKAAAAAR (variant peptide of 10Ala having 5 alanine residues between the lysine and the C-terminal arginine)”, the “Inhibition of HT29 cell growth/proliferation (MTT), in words” value (HT29 colon cancer cells [1]) was “significantly less effective at inhibiting growth”.
In the case of “RKRK (A scrambled version of the charged residues RKKR)”, the “Inhibition of HT29 cell growth/proliferation (MTT), in words” value (HT29 colon cancer cells [1]) was “significantly less effective at inhibiting growth of the cells”.
In the case of “RARAKNPLYK (10 mer peptide from B3 integrin cytoplasmic domain) [10 mer peptide derived from the β3 integrin cytoplasmic domain]”, the “Inhibition … (previously reported)” value (colon cancer cells) is listed as “effective at inhibiting proliferation”.
In the case of “KARARAAAAK (10Ala peptide in which the positions of one or both arginine and lysine residues have been inverted)”, the “Inhibition of HT29 cell growth/proliferation (MTT), in words” value (HT29 colon cancer cells [1]) was “significantly reduced the ability of the peptides to inhibit cell growth”.
With RAKAKAAAR (short variant of 10Ala) the “Inhibition of HT29 cell growth/proliferation (MTT), in words” value (HT29 colon cancer cells [1]) was “minimal effect; also recorded: significantly less effective at inhibiting growth”.
For “RSRARNPLYR (10 mer peptide from B5 integrin cytoplasmic domain) [10 mer peptide derived from the β5 integrin cytoplasmic domain]”, the “Inhibition … (previously reported)” value (colon cancer cells) is given as “effective at inhibiting proliferation”.
